Read-outs that look alike come from different tables or passages of the source.
Legend:
Format in all cases: cell-based
[1] = tested on: S. epidermidis ATCC 12228; test: Antimicrobial susceptibility assay (broth microdilution MIC); details: Staphylococcus epidermidis, ATCC12228; S. epidermidis ATCC 12228; 18 h at 37°C; growth inhibited by ≥90%; read-out: MIC
From the text: (§1) The bacterial strains S. aureus ATCC 29213, S. aureus ATCC 29247, S. aureus ATCC BAA-41, E. faecium ATCC 49624, E. faecium ATCC 700221, E. faecalis ATCC 29212, S. epidermidis ATCC 12228, E. coli ATCC 25922, and K. pneumoniae ATCC BAA-1144 used in the antimicrobial susceptibility assays were purchased from American Type Culture Collection (ATCC, USA). B. subtilis strain 168 was already available in our in-house collection. E. coli JM109 WM647 was kindly provided by Dr. W. Margolin (University of Texas-Houston Medical School). FM 4–64 was purchased from Invitrogen (Eugene, Oregon). All other chemicals and reagents were purchased from Sigma-Aldrich. Stock solutions were prepared in DMSO. The final percentage of DMSO in the assays was 1% (v/v) for all experiments.
(§2) Antimicrobial susceptibility tests were conducted in 96-well microplates using the broth microdilution procedure described in the Clinical and Laboratory Standards Institute (CLSI) guidelines. Cation-adjusted Mueller Hinton broth for S. aureus strain ATCC 29213, methicillin-resistant S. aureus strain ATCC BAA-41 and ampicillin-resistant S. aureus strain ATCC 29247, or brain heart infusion broth for antibiotic-susceptible E. faecium strain ATCC 49624 and vancomycin-resistant E. faecium strain ATCC 700221, or Mueller Hinton broth for antibiotic-susceptible strains B. subtilis strain 168, E. faecalis strain ATCC 29212 and E. coli strain ATCC 25922 were used in the assays. After incubation for 18 h at 37°C, the absorbance at 600 nm (A600) was recorded using a microplate reader (Bio-Rad laboratory Ltd., UK) and the percentage of bacterial cell inhibition with respect to vehicles (1% DMSO) was calculated. The MIC was defined as the lowest compound concentration at which the growth of bacteria was inhibited by ≥90%. Three independent assays were performed for each test.

[2] = tested on: K. pneumoniae ATCC BAA-1144; test: as above; details: Klebsiella pneumoniae, ATCCBAA1144; K. pneumoniae ATCC BAA-1144 (Gram-negative, expressing AmpC β-lactamase); 18 h at 37°C; growth inhibited by ≥90%; read-out: MIC
From the text: as §1, §2

[3] = tested on: E. coli ATCC 25922; test: as above; details: Escherichia coli, ATCC25922; E. coli ATCC 25922; Mueller Hinton broth, 18 h at 37°C; growth inhibited by ≥90%; read-out: MIC
From the text: as §1, §2

[4] = tested on: S. aureus ATCC BAA-41; test: as above; details: Staphylococcus aureus, ATCCBAA41; S. aureus ATCC BAA-41 (methicillin-resistant); 18 h at 37°C; growth inhibited by ≥90%; read-out: MIC
From the text: as §1, §2

[5] = tested on: E. faecalis ATCC 29212; test: as above; details: Enterococcus faecalis, ATCC29212; E. faecalis ATCC 29212; Mueller Hinton broth, 18 h at 37°C; growth inhibited by ≥90%; read-out: MIC
From the text: as §1, §2

[6] = tested on: B. subtilis 168; test: as above; details: Bacillus subtilis; B. subtilis 168; Mueller Hinton broth, 18 h at 37°C; growth inhibited by ≥90%; read-out: MIC
From the text: as §1, §2

[7] = tested on: S. aureus ATCC 29213; test: as above; details: Staphylococcus aureus, ATCC29213; S. aureus ATCC 29213; cation-adjusted Mueller Hinton broth, 18 h at 37°C; growth inhibited by ≥90%; read-out: MIC
From the text: as §1, §2

[8] = tested on: S. aureus ATCC 29247; test: as above; details: Staphylococcus aureus, ATCC29247; S. aureus ATCC 29247 (ampicillin-resistant); 18 h at 37°C; growth inhibited by ≥90%; read-out: MIC
From the text: as §1, §2

[9] = tested on: Gram-negative strains E. coli and K. pneumoniae (expressing AmpC β-lactamase); test: Antimicrobial susceptibility assay, summary over Gram-negative strains; details: Escherichia coli, read-out: MIC values
From the text: as §1, §2

[10] = Gram-negative strains E. coli and K. pneumoniae

SMILES | MIC [1] [µg/mL] | MIC [2] [µg/mL] | MIC [3] [µg/mL] | MIC [4] [µg/mL] | MIC [5] [µg/mL] | MIC [6] [µg/mL] | MIC [7] [µg/mL] | MIC [8] [µg/mL] | MIC [9, 10] [µg/mL] | MIC [9] [µg/mL]
COc1ccc(OCCCOc2c(OC)ccc3cc4[n+](cc23)CCc2cc3c(cc2-4)OCO3)cc1 [Compound 3] | 4 | 128 | 128 | 8 | 32 | 8 | 8 | 8 | 32 to 128 | 
COc1ccc2cc3[n+](cc2c1OC)CCc1cc2c(cc1-3)OCO2 [Berberine, Berberine chloride] | 128 | > 500 | > 500 | 196 | > 196 | 128 | 128 | 128 |  | > 500
COc1ccc2cc3[n+](cc2c1OCCCOc1ccc(Cl)cc1)CCc1cc2c(cc1-3)OCO2 [Compound 2] | 2 | 64 | 32 | 2 | 4 | 4 | 2 | 2 | 32 to 128 | 
COc1ccc2cc3[n+](cc2c1OCCCOc1ccc([N+](=O)[O-])cc1)CCc1cc2c(cc1-3)OCO2 [Compound 5] | 2 | 64 | 32 | 2 | 8 | 8 | 2 | 2 | 32 to 128 | 
COc1ccc2cc3[n+](cc2c1OCCCOc1ccccc1)CCc1cc2c(cc1-3)OCO2 [Compound 1] | 4 | 128 | 96 | 4 | 16 | 8 | 4 | 4 | 32 to 128 | 
COc1ccc2cc3[n+](cc2c1OCCCCOc1ccccc1)CCc1cc2c(cc1-3)OCO2 [Compound 6] | 4 | 128 | 96 | 4 | 16 | 8 | 4 | 4 | 32 to 128 | 
COc1ccc2cc3[n+](cc2c1OCCCOc1ccccc1C)CCc1cc2c(cc1-3)OCO2 [Compound 4] | 4 | 64 | 96 | 4 | 8 | 8 | 4 | 4 | 32 to 128 | 
